Experimental data published in patent US20260014146A1, “CDK2 INHIBITORS AND METHODS OF USING THE SAME” (Cedilla Therapeutics, Inc., priority 2022, published 2026).

Legend:
[1] = biological target: CDK2/Cyclin E1 (Homo sapiens (Human), UniProt P24941); experiment: Caliper LabChip EZ Reader mobility shift assay; format: biochemical; settings: 2.5 nM CDK2/Cyclin E1 (14-475), 100 μM ATP, 1.5 μM fluorescent peptide; read-out: Caliper Assay (CDK2/CCNE1): IC50
Description: Inhibition of CDK2/Cyclin E1 activity in the presence of compounds of the present disclosure was evaluated using a Caliper LabChip® EZ Reader mobility shift assay. In the assay, activated CDK2/Cyclin E1 catalyzes the phosphorylation of a fluorescently tagged peptide 5-FAM-QSPKKG-CONH2 (PerkinElmer, FL Peptide 18) which induces a difference in capillary electrophoresis mobility. The peptide substrate and product were measured, and the conversion ratio was used to determine the inhibition (as % activity and IC50 values) of CDK2/Cyclin E1. Reactions contained 50 mM HEPES pH 7.5, 10 mM MgCl2, 1 mM EDTA, 2 mM DTT, 0.01% Brij35, 0.5 mg/mL BSA, 0.1% DMSO, 2.5 nM CDK2/Cyclin E1 (14-475), 100 μM ATP, and 1.5 μM fluorescent peptide substrate.
Dose titrations of inhibitors in 100% DMSO were combined with 3.25 nM CDK2/Cyclin E1 (14-475) and 130 μM of ATP in reaction buffer. The mixtures were incubated for 30 minutes before the addition of fluorescent peptide substrate to initiate the kinase reaction. The final conditions were 2.5 nM CDK2/Cyclin E1 (14-475), 100 μM ATP, and 1.5 μM fluorescent peptide. The reactions were stopped after 100 minutes with the addition of EDTA (6 mM final EDTA concentration). The stopped reactions were analyzed on a Caliper LabChip® EZ Reader II. The conversion ratios were normalized to yield % activity, plotted against compound concentration, and fit to a four-parameter equation to determine the IC50 for each compound.

[2] = tested on: Kuramochi cells labeled with mApple-H2B; experiment: IncuCyte cell proliferation assay; format: cell-based; settings: Kuramochi RB-WT, cell count 0 to 72 hours; method calls it GI50
Description: IncuCyte® assay was used to measure the effect of disclosed compounds on cell proliferation. Fluorescent microscopy images of cells were taken immediately after compound treatment and 72 hours later. Image analysis software was used to obtain cell counts as a function of compound concentration. Kuramochi cells labeled with mApple-H2B were seeded on 384-well assay-ready plates. Plates were placed in an IncuCyte® (Sartorius) and scanned at 0 and 72 hours. IncuCyte® software was used to count the number of fluorescent nuclei in each well. The fold change in cell count from 0 to 72 hours in wells treated with increasing compounds concentrations (10 pts, 1/2 log dilution, 20 μM top concentration) was normalized to DMSO control wells. The normalized cell counts were fit with dose response curves and a GI50 was calculated.

Structure (SMILES) | IC50 [1] [nM] | IC50 [2] [nM]
CC(OCC12CCC(CC1)OC2)[C@H](NC(=O)[C@@H]1CN(c2ncnc3ncsc23)CC12CN(C(=O)[C@H]1CC1(C)C)C2)C(=O)N1CC2(CCOCC2)C1 (stereo partly drawn) [Compound I-25, (S)-N-((2S,3R)-3-((2-oxabicyclo[2.2.2]octan-4-yl)methoxy)-1-oxo-1-(7-oxa-2-azaspiro[3.5]nonan-2-yl)butan-2-yl)-2-((S)-2,2-dimethylcyclopropane-1-carbonyl)-6-(thiazolo[4,5-d]pyrimidin-7-yl)-2,6-diazaspiro[3.4]octane-8-carboxamide] | 100 to 1000 | > 20000
C[C@@H](OCC12CCC(CC1)OC2)[C@H](NC(=O)[C@@H]1CN(c2nccc3ncsc23)CC12CN(C(=O)[C@H]1CC1(C)C)C2)C(=O)N1CCC2(CC1)COC2 [Compound I-19, (S)-N-((2S,3R)-3-(2-oxabicyclo[2.2.2]octan-4-ylmethoxy)-1-oxo-1-(2-oxa-7-azaspiro[3.5]nonan-7-yl)butan-2-yl)-2-((S)-2,2-dimethylcyclopropanecarbonyl)-6-(thiazolo[5,4-c]pyridin-4-yl)-2,6-diazaspiro[3.4]octane-8-carboxamide] | 1000 to 10000 | > 20000
C[C@@H](OCC12CCC(CC1)OC2)[C@H](NC(=O)[C@@H]1CN(c2cc(F)cc3ncsc23)CC12CN(C(=O)[C@H]1CC1(C)C)C2)C(=O)N1CCC(c2ccncc2)CC1 [Compound I-33, N-((2S,3R)-3-(2-oxabicyclo[2.2.2]octan-4-ylmethoxy)-1-oxo-1-(4-(pyridin-4-yl)piperidin-1-yl)butan-2-yl)-2-((S)-2,2-dimethylcyclopropanecarbonyl)-6-(5-fluorobenzo[d]thiazol-7-yl)-2,6-diazaspiro[3.4]octane-8-carboxamide] | ≤ 10 | 500 to 5000
C[C@@H](OCC1CCCCC1)[C@H](NC(=O)[C@@H]1CN(c2nccc3ncsc23)CC12CN(C(=O)[C@H]1CC1(C)C)C2)C(=O)N1CCCCC1 [Compound I-15, (S)-N-((2S,3R)-3-(cyclohexylmethoxy)-1-oxo-1-(piperidin-1-yl)butan-2-yl)-2-((S)-2,2-dimethylcyclopropanecarbonyl)-6-(thiazolo[5,4-c]pyridin-4-yl)-2,6-diazaspiro[3.4]octane-8-carboxamide] | 100 to 1000 | 5000 to 20000
C[C@@H](OCC12CCC(CC1)OC2)C(NC(=O)[C@@H]1CN(c2ncnc3ncsc23)CC12CN(C(=O)[C@H]1CC1(C)C)C2)C(=O)N1CCC(C(F)(F)F)CC1 (stereo partly drawn) [Compound I-30, (S)-N-((2S,3R)-3-((2-oxabicyclo[2.2.2]octan-4-yl)methoxy)-1-oxo-1-(4-(trifluoromethyl)piperidin-1-yl)butan-2-yl)-2-((S)-2,2-dimethylcyclopropane-1-carbonyl)-6-(thiazolo[4,5-d]pyrimidin-7-yl)-2,6-diazaspiro[3.4]octane-8-carboxamide] | 10 to 100 | 500 to 5000
C[C@@H](OCC1CCCCC1)[C@H](NC(=O)[C@@H]1CN(c2cccc3[nH]ncc23)CC12CN(C(=O)[C@H]1CC1(C)C)C2)C(=O)N1CCCCC1 [Compound I-13, (S)-N-((2S,3R)-3-(cyclohexylmethoxy)-1-oxo-1-(piperidin-1-yl)butan-2-yl)-2-((S)-2,2-dimethylcyclopropanecarbonyl)-6-(1H-indazol-4-yl)-2,6-diazaspiro[3.4]octane-8-carboxamide] | 1000 to 10000 | 5000 to 20000
C[C@@H](OCC1(CO)CC=CCC1)[C@H](NC(=O)[C@@H]1CN(c2ncnc3ncsc23)CC12CN(C(=O)[C@H]1CC1(C)C)C2)C(=O)N1CCC(C(F)(F)F)CC1 (stereo partly drawn) [Compound I-36, (8S)-2-((S)-2,2-dimethylcyclopropane-1-carbonyl)-N-((2S,3R)-3-((1-(hydroxymethyl)cyclohex-3-en-1-yl)methoxy)-1-oxo-1-(4-(trifluoromethyl)piperidin-1-yl)butan-2-yl)-6-(thiazolo[4,5-d]pyrimidin-7-yl)-2,6-diazaspiro[3.4]octane-8-carboxamide] | 10 to 100 | > 20000
